What was measured:
[1] = target: T1, Free fatty acid receptor 1 (Homo sapiens, UniProt O14842); assay: Agonist activity at recombinant human GPR40 expressed in HEK293 cells assessed as increase in IP1 accumulation measured after 60 mins in presence of 100% human serum by HTRF assay; format: functional, cell-based
[2] = target: T1, Free fatty acid receptor 1; assay: Agonist activity at recombinant human GPR40 expressed in HEK293 cells assessed as increase in IP1 accumulation measured after 60 mins by HTRF assay relative to AM-1638; format: functional, cell-based
[3] = target: T1, Free fatty acid receptor 1; assay: Agonist activity at recombinant human GPR40 expressed in HEK293 cells assessed as increase in IP1 accumulation measured after 60 mins in presence of 100% human serum by HTRF assay relative to AM-1638; format: functional, cell-based
[4] = target: T1, Free fatty acid receptor 1; assay: Agonist activity at recombinant human GPR40 expressed in HEK293 cells assessed as increase in IP1 accumulation measured after 60 mins by HTRF assay; format: functional, cell-based
Rattus norvegicus [5] = assay: Antidiabetic activity in Sprague-Dawley rat assessed as inhibition of blood glucose AUC at 3 mg/kg, po treated prior to dextrose challenge and measured after 20 to 60 mins by IPGTT relative to control; format: functional; conditions: for inhibition in vivo at 3 mg/kg: Rattus norvegicus, Sprague-Dawley, po
[6] = target: Free fatty acid receptor 1 (Rattus norvegicus) (UniProt Q8K3T4); assay: Agonist activity at recombinant rat GPR40 expressed in CHOK1 cells assessed as increase in IP1 accumulation measured after 60 mins by HTRF assay relative to AM-1638; format: functional, cell-based
Free fatty acid receptor 1 (Rattus norvegicus), sequence (Q8K3T4 whole entry): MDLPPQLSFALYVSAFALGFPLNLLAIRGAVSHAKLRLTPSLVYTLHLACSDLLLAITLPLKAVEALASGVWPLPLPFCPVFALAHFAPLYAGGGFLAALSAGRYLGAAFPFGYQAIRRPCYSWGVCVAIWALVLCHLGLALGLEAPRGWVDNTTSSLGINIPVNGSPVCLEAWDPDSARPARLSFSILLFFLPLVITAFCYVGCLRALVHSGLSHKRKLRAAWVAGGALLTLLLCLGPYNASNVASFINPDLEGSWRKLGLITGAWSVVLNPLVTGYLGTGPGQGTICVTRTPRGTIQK

Rattus norvegicus [7] = assay: Antidiabetic activity in po dosed Goto Kakizaki rats assessed as plasma concentration required for reduction in blood glucose excursion at MED pretreated for 1 hr followed by dextrose challenge measured 3 hrs post dose by OGTT; format: functional, organism-based
[8] = Lipophilicity, log D of the compound at pH 7 at 100 uM by HPLC method; format: physicochemical; conditions: buffer

T1 sequence (O14842 whole entry): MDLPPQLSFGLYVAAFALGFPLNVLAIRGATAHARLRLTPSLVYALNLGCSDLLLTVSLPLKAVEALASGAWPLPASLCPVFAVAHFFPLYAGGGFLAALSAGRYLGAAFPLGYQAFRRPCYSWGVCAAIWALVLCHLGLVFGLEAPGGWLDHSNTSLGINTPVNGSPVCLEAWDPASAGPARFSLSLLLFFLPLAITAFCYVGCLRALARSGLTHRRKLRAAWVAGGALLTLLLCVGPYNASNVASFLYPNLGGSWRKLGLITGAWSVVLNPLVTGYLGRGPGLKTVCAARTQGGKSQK

| Structure (SMILES) | EC50 [1] [µM] | max activation [2] [%] | max activation [3] [%] | EC50 [4] [µM] | also measured |
| --- | --- | --- | --- | --- | --- |
| COc1ccc(F)c(-c2ccc(C3CCc4ccc([C@H](C5CC5)[C@H](C)C(=O)O)cc4O3)cc2)c1 (stereo in doubt; 14) |  | > 179 | > 179 |  | max activation [6]: > 370%; Cp (Rattus norvegicus [7]): 3 µM |
| COc1ccc(F)c(-c2ccc(C3CCc4ccc([C@H](C5CC5)[C@H](C)C(=O)O)cc4O3)cc2)c1 (stereo in doubt; 15) [listing 1 of 2 here] | 0.127 |  |  | 0.0026 | inhibition in vivo at 3 mg/kg (Rattus norvegicus [5]): 102% |
| COc1ccc(F)c(-c2ccc(C3CCc4ccc([C@H](C5CC5)[C@H](C)C(=O)O)cc4O3)cc2)c1 (stereo in doubt; 15) [listing 2 of 2 here] |  | > 179 | > 179 |  |  |
| COc1ccc(F)c(-c2ccc(C3CCc4ccc([C@H](C5CC5)[C@H](C)C(=O)O)cc4O3)nc2)c1 (stereo in doubt; 17) [listing 1 of 2 here] |  |  |  |  | inhibition in vivo at 3 mg/kg (Rattus norvegicus [5]): 100% |
| COc1cc(-c2ccc(C3CCc4ccc([C@H](C5CC5)[C@H](C)C(=O)[O-])cc4O3)cc2)ccn1.[Na+] (stereo in doubt; 22) | 0.382 |  |  |  | inhibition (INH) (Rattus norvegicus [5]): 49%; logD at 100 µM [8]: 2.3 |
| COc1cc(-c2ccc(C3CCc4ccc([C@H](C5CC5)[C@H](C)C(=O)O)cc4O3)cc2)ccn1 (stereo in doubt; 22) |  | > 179 | > 179 |  |  |
| COc1cc(-c2ccc(C3CCc4ccc([C@H](C5CC5)[C@H](C)C(=O)[O-])cc4O3)cc2)ccn1.[Na+] (stereo in doubt; 23) | 0.521 |  |  |  | inhibition (INH) (Rattus norvegicus [5]): 7% |
| COc1cc(-c2ccc(C3CCc4ccc([C@H](C5CC5)[C@H](C)C(=O)O)cc4O3)cc2)ccn1 (stereo in doubt; 23) |  | > 179 | > 179 |  |  |
| COc1cc(-c2ccc(C3CCc4ccc([C@H](C5CC5)[C@H](C)C(=O)[O-])cc4O3)c(F)c2)c(F)cn1.[Na+] (stereo in doubt; 26) | 0.036 |  |  | < 0.0002 | inhibition (INH) (Rattus norvegicus [5]): 72%; logD at 100 µM [8]: 2.97 |
| COc1cc(-c2ccc(C3CCc4ccc([C@H](C5CC5)[C@H](C)C(=O)O)cc4O3)c(F)c2)c(F)cn1 (stereo in doubt; 26) |  | > 179 | > 179 |  |  |
| COc1cc(-c2ccc(C3CCc4ccc([C@H](C5CC5)[C@H](C)C(=O)[O-])cc4O3)c(F)c2)c(F)cn1.[Na+] (stereo in doubt; 27) | 0.328 |  |  |  | inhibition (INH) (Rattus norvegicus [5]): 38% |
| COc1cc(-c2ccc(C3CCc4ccc([C@H](C5CC5)[C@H](C)C(=O)O)cc4O3)c(F)c2)c(F)cn1 (stereo in doubt; 27) |  | > 179 | > 179 |  |  |
| COc1cc(-c2cnc(C3CCc4ccc([C@H](C5CC5)[C@H](C)C(=O)O)cc4O3)c(F)c2)c(F)cn1 (stereo in doubt; 30) [listing 1 of 2 here] | 0.382 |  |  |  | logD at 100 µM [8]: 2.36 |
| COc1cc(-c2cnc(C3CCc4ccc([C@H](C5CC5)[C@H](C)C(=O)O)cc4O3)c(F)c2)c(F)cn1 (stereo in doubt; 30) [listing 2 of 2 here] |  | > 179 | > 179 |  |  |
| COc1cc(-c2cnc(C3CCc4ccc([C@H](C5CC5)[C@H](C)C(=O)O)cc4O3)c(F)c2)c(F)cn1 (stereo in doubt; 31) [listing 1 of 2 here] | 0.757 |  |  |  |  |
| COc1cc(-c2cnc(C3CCc4ccc([C@H](C5CC5)[C@H](C)C(=O)O)cc4O3)c(F)c2)c(F)cn1 (stereo in doubt; 31) [listing 2 of 2 here] |  | > 179 | > 179 |  |  |
| COc1cc(-c2ccc(C3CCc4ccc([C@H](C5CC5)[C@H](C)C(=O)O)cc4O3)nc2)ccn1 (stereo in doubt; 32) [listing 1 of 2 here] | 0.838 |  |  |  | logD at 100 µM [8]: 1.74 |
| COc1cc(-c2ccc(C3CCc4ccc([C@H](C5CC5)[C@H](C)C(=O)O)cc4O3)nc2)ccn1 (stereo in doubt; 32) [listing 2 of 2 here] |  | > 179 | > 179 |  |  |
| COc1cc(-c2ccc(C3CCc4ccc([C@H](C5CC5)[C@H](C)C(=O)O)cc4O3)nc2)ccn1 (stereo in doubt; 33) [listing 1 of 2 here] | 0.462 |  |  |  |  |
| COc1cc(-c2ccc(C3CCc4ccc([C@H](C5CC5)[C@H](C)C(=O)O)cc4O3)nc2)ccn1 (stereo in doubt; 33) [listing 2 of 2 here] |  | > 179 | > 179 |  |  |

Continued, in another order:

| EC50 [1] [µM] | max activation [2] [%] | max activation [3] [%] | EC50 [4] [µM] | Structure (SMILES) | also measured |
| --- | --- | --- | --- | --- | --- |
| 1.21 | 460 | 224 |  | COc1cc(-c2ccc(C3CCc4ccc([C@@H](CC(=O)O)C5CC5)cc4O3)cc2)c(F)cn1 (some centres not stated) |  |
| 1.23 | 359 | 188 | 0.007 | COc1ccc(F)c(-c2ccc(C3CCc4ccc([C@@H](CC(=O)O)C5CC5)cc4O3)cc2)c1 (mixture of isomers) |  |
| 6.43 | 385 | 73 | 0.934 | O=C(O)C[C@H](c1ccc2c(c1)OC(c1ccc(-c3cccc(OC(F)(F)F)c3)cc1)CC2)C1CC1 (mixture of isomers) |  |
| 0.92 | > 179 | > 179 | 0.0082 | COc1cc(-c2ccc(C3CCc4ccc([C@H](C5CC5)[C@H](C)C(=O)O)cc4O3)c(F)c2)ccn1 (mixture of isomers) | inhibition in vivo at 3 mg/kg (Rattus norvegicus [5]): 84% |
| 2.56 | 401 | 229 |  | COc1cc(-c2ccc(C3CCc4ccc([C@@H](CC(=O)O)C5CC5)cc4O3)cc2)ccn1 (mixture of isomers) |  |
| 4.58 | 422 | 231 | 0.391 | O=C(O)C[C@H](c1ccc2c(c1)OC(c1ccc(-c3cccc(O)c3)cc1)CC2)C1CC1 (mixture of isomers) |  |
| 5.17 | 500 | 144 |  | CSc1cccc(-c2ccc(C3CCc4ccc([C@@H](CC(=O)O)C5CC5)cc4O3)cc2)c1 (mixture of isomers) |  |
| > 10 | 535 | 2.4 |  | COc1cccc(-c2ccc(C3CCc4ccc([C@@H](CC(=O)O)C5CC5)cc4O3)cc2)n1 (mixture of isomers) |  |
| 5.44 | 452 | 57 | 0.133 | O=C(O)C[C@H](c1ccc2c(c1)OC(c1ccc(-c3ccccc3)cc1)CC2)C1CC1 (single isomer, unassigned) |  |
| 4.03 | 394 | 223 | 0.023 | COc1cccc(-c2ccc(C3CCc4ccc([C@@H](CC(=O)O)C5CC5)cc4O3)cc2)c1 (single isomer, unassigned) |  |
|  | > 179 | > 179 |  | COc1ccc(F)c(-c2ccc(C3CCc4ccc([C@H](C5CC5)[C@H](C)C(=O)O)cc4O3)nc2)c1 (stereo in doubt; 16) | max activation [6]: > 370%; Cp (Rattus norvegicus [7]): 13.9 µM |
|  | > 179 | > 179 |  | COc1ccc(F)c(-c2ccc(C3CCc4ccc([C@H](C5CC5)[C@H](C)C(=O)O)cc4O3)nc2)c1 (stereo in doubt; 17) [listing 2 of 2 here] |  |
| 5.33 |  |  | 0.024 | COc1ccc(F)c(-c2ccc(C3CCc4ccc([C@H](C5CC5)[C@H](C)C(=O)O)cc4O3)cn2)c1 (stereo in doubt; 18) [listing 1 of 2 here] | logD at 100 µM [8]: 2.29 |
|  | > 179 | > 179 |  | COc1ccc(F)c(-c2ccc(C3CCc4ccc([C@H](C5CC5)[C@H](C)C(=O)O)cc4O3)cn2)c1 (stereo in doubt; 18) [listing 2 of 2 here] |  |
| 2.47 |  |  | 0.013 | COc1ccc(F)c(-c2ccc(C3CCc4ccc([C@H](C5CC5)[C@H](C)C(=O)O)cc4O3)cn2)c1 (stereo in doubt; 19) [listing 1 of 2 here] |  |
|  | > 179 | > 179 |  | COc1ccc(F)c(-c2ccc(C3CCc4ccc([C@H](C5CC5)[C@H](C)C(=O)O)cc4O3)cn2)c1 (stereo in doubt; 19) [listing 2 of 2 here] |  |
| 0.066 |  |  | 0.0009 | COc1cc(-c2ccc(C3CCc4ccc([C@H](C5CC5)[C@H](C)C(=O)[O-])cc4O3)cc2)c(F)cn1.[Na+] (stereo in doubt; 20) | inhibition (INH) (Rattus norvegicus [5]): 59%; logD at 100 µM [8]: 2.68 |
|  | > 179 | > 179 |  | COc1cc(-c2ccc(C3CCc4ccc([C@H](C5CC5)[C@H](C)C(=O)O)cc4O3)cc2)c(F)cn1 (stereo in doubt; 20) |  |
| 0.105 |  |  | < 0.0002 | COc1cc(-c2ccc(C3CCc4ccc([C@H](C5CC5)[C@H](C)C(=O)[O-])cc4O3)cc2)c(F)cn1.[Na+] (stereo in doubt; 21) | inhibition (INH) (Rattus norvegicus [5]): 88% |
|  | > 179 | > 179 |  | COc1cc(-c2ccc(C3CCc4ccc([C@H](C5CC5)[C@H](C)C(=O)O)cc4O3)cc2)c(F)cn1 (stereo in doubt; 21) |  |
| 1.03 |  |  | < 0.0002 | COc1cc(-c2ccc(C3CCc4ccc([C@H](C5CC5)[C@H](C)C(=O)[O-])cc4O3)nc2)c(F)cn1.[Na+] (stereo in doubt; 28) | inhibition (INH) (Rattus norvegicus [5]): 102%; logD at 100 µM [8]: 1.98 |
|  | > 179 | > 179 |  | COc1cc(-c2ccc(C3CCc4ccc([C@H](C5CC5)[C@H](C)C(=O)O)cc4O3)nc2)c(F)cn1 (stereo in doubt; 28) |  |

— ChEMBL document CHEMBL4145665, “Structure-Activity Relationship of Novel and Selective Biaryl-Chroman GPR40 AgoPAMs” (ACS Med Chem Lett, 2018)
